Laboratory results: patent US20020119995A1, “Inverse thiazolylamide derivatives” (priority 2000, published 2002)
Where two headings read alike, the source gives them in different places.

Key:
[1] = tested on: HSV-2 G; assay: anti-HSV screening test (cytopathogenic effect, fluorescein diacetate readout) in Vero cells, HSV-2 G; assay type: cell-based; settings: read-out: IC50 [μM] HSV-2 G/Vero
Protocol: (§1) HSV (HSV-1 Walki, HSV-1F or HSV-2G) was cultivated on Vero cells (ATCC CCL-81) under the following conditions. The cells were grown in M199 medium (5% foetal calf serum, 2 mM glutamine, 100 IU/ml penicillin, 100 μg/ml streptomycin) in cell culture bottles at 37° C. and 5% CO2. The cells were split twice per week, in each case 1:4. For the infection, the medium was removed, the cells were washed with Hank's solution, detached using 0.05% trypsin, 0.02% EDTA (Seromed L2143) and incubated at a density of 4×10^5 cells per ml under the abovementioned conditions for 24 hours. The medium was then removed and the virus solution was added at an m.o.i. of <0.05 in a volume of 2 ml per 175 cm^2 of surface. The medium was incubated under the conditions mentioned for one hour and then made up to a volume of 50 ml per 175 cm^2 bottle. […] The virus was released by freezing (−80° C.) and thawing (37° C.) the cultures twice. Cell debris was removed by centrifugation (300 g, 10 min, 4° C.) and the supernatant was frozen down in aliquots at −80° C.
(§2) The anti-HSV action was determined in a screening test system in 96-well microtitre plates using various cell lines of neuronal, lymphoid and epithelial origin, such as, for example, Vero (kidney cell line of the green monkey), MEF (murine embryonal fibroblasts), HELF (human embryonal fibroblasts), NT2 (human neuronal cell line) or Jurkat (human lymphoid T-cell line).
(§3) The substances (50 mM), dissolved in DMSO (dimethyl sulphoxide), are examined on microtitre plates (for example 96-well MTP) in final concentrations of 250-0.5 μM (micromolar) in two replications (4 substances/plate). In the case of potent substances, the dilutions are continued for several plates up to 0.5 pM (picomolar). Also examined are toxic and cytostatic effects of the substances. After an appropriate dilution of the substances (1:2) on the microtitre plate in medium, a suspension of cells ([…] cells per well) such as, for example, of Vero cells in M199 (medium 199) with 5% foetal calf serum, 2 mM glutamine and optionally 100 IU/ml penicillin and 100 μg/ml streptomycin or of MEF cells in EMEM (Eagle's Minimum Essential Medium) with 10% foetal calf serum, 2 mM glutamine and optionally 100 IU/ml penicillin and 100 μg/ml streptomycin, or of HELF cells in EMEM with 10% foetal calf serum, 2 mM glutamine and optionally 100 IU/ml penicillin and 100 μg/ml streptomycin, or of NT2 and Jurkat cells in DMEM ([…] glucose plus pyridoxin) with 10% foetal calf serum, 2 mM glutamine, 1 mM sodium pyruvate, non-essential amino acids and optionally 100 IU/ml penicillin and 100 μg/ml streptomycin, is added to each well and the cells in the relevant wells are infected with an appropriate amount of virus (HSV-1 F or HSV-2 G having an m.o.i. (multiplicity of infection) of 0.0025 for HELF, Vero and MEF cells and an m.o.i. of 0.1 for NT2 and Jurkat cells). The plates are then incubated at 37° C. in a CO2 incubator (5% CO2) for several days. […] The plates are initially evaluated visually using a microscope and then analysed using a fluorescent dye. To this end, the cell supernatant of all wells of the MTP is aspirated and the wells are filled with 200 μl of PBS wash solution. The PBS is then aspirated and all the wells are filled with 200 μl of fluorescent dye solution (fluorescein diacetate, 10 μg/ml in PBS). After an incubation time of 30-90 min, the test plates are read in a fluorescence detector at an excitation wavelength of 485 nm and an emission wavelength of 538 nm.

[2] = tested on: HSV-1 F; assay: anti-HSV screening test (cytopathogenic effect, fluorescein diacetate readout) in Vero cells, HSV-1 F; assay type: cell-based; settings: read-out: IC50 [μM] HSV-1 F/Vero
Protocol: as §1, §2, §3

[3] = tested on: HSV-1; assay: in-vivo action: survival of intranasally HSV-infected mice; set-up: species or system BALB/cABom strain; settings: HSV-1, intranasal infection 5×10^4 Pfu, female BALB/cABom mice; treated 3 times per day for 5 days from 6 hours after infection; from survival curves
Protocol: 6-week-old female mice, BALB/cABom strain were obtained from a commercial breeder (Bomholtgard Breeding and Research Centre Ltd.).
The animals were anaesthetized with diethyl ether (Merck) in a sealed glass vessel. 50 μl of a dilution of the virus stock (infection dose 5×10^4 Pfu) were introduced into the nose of the anaesthetized animals using an Eppendorf pipette. In 90-100% of the animals, this infection dose causes death by a generalized infection with prominent respiratory and central-nervous symptoms on average after 5 to 8 days.
6 hours after the infection, the animals were treated with doses of 0.1-100 mg/kg of body mass, 3 times per day, at 7 a.m., 2 p.m. and 7 p.m., for a period of 5 days. The substances were pre-dissolved in DMSO and resuspended in tylose/PBS (Hoechst) (final concentration 1.5% DMSO, 0.5% tylose in PBS).
After the last administration, the animals were monitored further and the time of death was determined.

[4] = Human alphaherpesvirus 2, HSV-2 G, Vero cells, half-maximal fluorescence intensity with respect to the non-infected cell control
[5] = Human alphaherpesvirus 1, HSV-1 F, Vero cells, half-maximal fluorescence intensity with respect to the non-infected cell control

Row | IC50 [1, 4] [µM] | IC50 [2, 5] [µM] | Compound | IC50 ([1]; Human alphaherpesvirus 2, Vero) [µM] | IC50 ([2]; Human alphaherpesvirus 1, Vero) [µM] | ED90 (90% of the animals survive at this dose) [3]
1 | 0.06 | 0.1 | CNS(=O)(=O)c1sc(C(C)C(=O)Nc2ccc(-c3ccccc3)cc2)nc1C (centres unmarked) [Example 5, N-(1,1′-Biphenyl-4-yl)-2-{4-methyl-5-[(methylamino)sulphonyl]-1,3-thiazol-2-yl}propanamide] |  |  | 
2 | 0.03 | 0.05 | Cc1nc(C(C)C(=O)Nc2ccc(-c3ccccc3)cc2)sc1S(N)(=O)=O (centres unmarked) [Example 1, 2-[5-(Aminosulphonyl)-4-methyl-1,3-thiazol-2-yl]-N-(1,1′-biphenyl-4-yl)-propanamide] |  |  | 
3 | 0.4 | 0.2 | Cc1nc(C(C)C(=O)Nc2ccc(-c3ccccn3)cc2)sc1S(N)(=O)=O (centres unmarked) [Example 2, 2-[5-(Aminosulphonyl)-4-methyl-1,3-thiazol-2-yl]-N-[4-(2-pyridinyl)-phenyl]propanamide] |  |  | 

The next lines start with the compound.

Row | Compound | IC50 [1, 4] [µM] | IC50 [2, 5] [µM] | IC50 ([1]; Human alphaherpesvirus 2, Vero) [µM] | IC50 ([2]; Human alphaherpesvirus 1, Vero) [µM] | ED90 (90% of the animals survive at this dose) [3]
4 | CCOc1ccc(NC(=O)C(C)c2nc(C)c(S(N)(=O)=O)s2)cc1 (centres unmarked) [Example 4, 2-[5-(Aminosulphonyl)-4-methyl-1,3-thiazol-2-yl]-N-(4-ethoxyphenyl)-propanamide] | 0.75 | 0.75 |  |  | 
5 | Cc1nc(C(C)C(=O)Nc2ccc(-c3cc(F)ccc3F)cc2)sc1S(N)(=O)=O (centres unmarked) [Example 3, 2-[5-(Aminosulphonyl)-4-methyl-1,3-thiazol-2-yl]-N-(2′,5′-difluoro-1,1′-biphenyl-4-yl)propanamide] |  |  | 0.01 | 0.05 | about 3 mg/kg
